# Tests used:
# [1] = test system: Rattus norvegicus; conditions: acute, oral
# [2] = test system: Rattus norvegicus; conditions: oral
# [3] = short-term, duration: 28 days, gavage, F, Sprague-Dawley, Absolute Organ Weight: Liver increase, Ovary increase, Thyroid increase + Relative Organ Weight: Ovary increase, Thyroid increase + …
# [4] = short-term, duration: 28 days, gavage, M, Sprague-Dawley, Absolute Organ Weight: Liver increase, Ovary increase, Thyroid increase + Relative Organ Weight: Ovary increase, Thyroid increase + …
# [5] = short-term, duration: 28 days, gavage, F, Sprague-Dawley, Functional Observational Battery: Locomotor activity decrease
# [6] = short-term, duration: 28 days, gavage, M, Sprague-Dawley, Functional Observational Battery: Locomotor activity decrease
# [7] = subchronic, gavage, M, Sprague-Dawley
# [8] = subchronic, gavage, M, Sprague-Dawley, Relative Organ Weight: Liver increase
# [9] = chronic, duration: 91 days, gavage, M/F, Wistar, Blood Chemistry: Ca increase, TP increase, Glob increase, TG increase, Glu decrease + Absolute Organ Weight: Liver increase, Kidney increase…
# [10] = subchronic, gavage, M, Sprague-Dawley, Clinical Observation: Salivation + Body Weight Changes: Gain increase + Food Consumption: increase + Hematology: Plt increase, Eosinophil% …
smiles,measurement,setting,value
"CCC(C)(C)c1ccc(O)c(C(C)(C)CC)c1 [2,4-Di-tert-pentylphenol]",LD50,[1]; Sprague-Dawley,920 mg/kg
same,NOAEL,"[2]; subchronic, gavage, M, Sprague-Dawley, Deaths + Clinical Observation: Salivation/100 Soft feces/100 + Body Weight Changes: Body weight gain decrease + Urinalysis: Volume increase…",10 mg/kg-day
"CCC(C)c1cc(C(C)(C)C)c(O)c(C(C)(C)C)c1 (centres undefined) [4-(Butan-2-yl)-2,6-di-tert-butylphenol]",LC50,[1]; Sprague-Dawley,4800 mg/kg
same,NOEL,"[2]; short-term, duration: 28 days, gavage, F, Sprague-Dawley, Clinical Observation: Soft feces + Urinalysis: pH decrease + Hematology: PT increase, APTT increase + Blood Chemistry: T-CHO increase, T-BIL…",< 15 mg/kg-day
same,NOEL,"[2]; short-term, duration: 28 days, gavage, M, Sprague-Dawley, Clinical Observation: Soft feces + Urinalysis: pH decrease + Hematology: PT increase, APTT increase + Blood Chemistry: T-CHO increase, T-BIL…",15 mg/kg-day
"CC(C)(C)c1cc(Cc2cc(C(C)(C)C)c(O)c(C(C)(C)C)c2)cc(C(C)(C)C)c1O [4,4'-Methylenebis(2,6-di-t-butylphenol)]",LOEL,[2]; [3],200 mg/kg-day
same,NOEL,[2]; [3],40 mg/kg-day
same,LOEL,[2]; [4],1000 mg/kg-day
same,NOEL,[2]; [4],200 mg/kg-day
"O=C1NC(=O)c2c(Cl)c(Cl)c(Cl)c(Cl)c21 [1H-Isoindole-1,3(2H)-dione, 4,5,6,7-tetrachloro-]",LOEL,[2]; [5],1000 mg/kg-day
same,NOEL,[2]; [5],300 mg/kg-day
same,LOEL,[2]; [6],1000 mg/kg-day
same,NOEL,[2]; [6],300 mg/kg-day
"CCCCCCCCCCCCCCCCCC(=O)OCCOC(=O)CCCCCCCCCCCCCCCCC [Octadecanoic acid, 1,2-ethanediyl ester]",LD50,[1]; gavage,> 10000 mg/kg
same,NOAEL,[2]; [7],1000 mg/kg-day
same,NOEL,[2]; [7],1000 mg/kg-day
Cl.O=C(O)/C=C/c1ccc(Cn2ccnc2)cc1 [Ozagrel hydrochloride],NOEL,"[2]; short-term, duration: 28 days, gavage, M/F, Sprague-Dawley, Deaths + Clinical Observation: Locomotor activity decrease, Respiration rate increase + Body Weight Changes: decrease + Food Consumption: …",625 mg/kg-day
CC(Cl)(Cl)C(=O)[O-].[Na+] [Dalapon-sodium],NOEL,"[2]; subchronic, gavage, M, Sprague-Dawley, Blood Chemistry: TP decrease, BUN increase",300 mg/kg-day
C=CCOC(=O)CC(C)C [Allyl isovalerate],NOEL,"[2]; subchronic, duration: 13 weeks, gavage, M/F, Fischer 344, Deaths + Body Weight Changes: decrease + Histopathology: Liver-Basophilic cytoplasmic change Liver-Multifocal coagulative necrosis Liver-…",31 mg/kg-day
O=C1c2ccccc2C(=O)C1c1ccc2ccccc2n1 [D & C Yellow 11],NOEL,"[2]; subchronic, diet, F, Fischer 344, Body Weight Changes: decrease + Absolute Organ Weight: Liver increase, Lung increase + Relative Organ Weight: Liver increase, Lung increase…",< 37 mg/kg-day
same,NOEL,"[2]; subchronic, diet, M/F, Fischer 344, Body Weight Changes: decrease + Absolute Organ Weight: Liver increase, Lung increase + Relative Organ Weight: Liver increase, Lung increase…",< 48 mg/kg-day
COc1c2occc2cc2ccc(=O)oc12 [8-Methoxypsoralen],NOEL,"[2]; subchronic, duration: 13 weeks, gavage, M/F, Fischer 344, Deaths + Clinical Observation: Rough hair coat Hunched appearance + Body Weight Changes: decrease + Absolute Organ Weight: Liver increase + …",< 25 mg/kg-day
O=C(O)c1ccc([N+](=O)[O-])cc1 [4-Nitrobenzoic acid],NOEL,"[2]; subchronic, duration: 13 weeks, diet, F, Fischer 344, Body Weight Changes: decrease + Hematology: Methemoglobin increase, Hct decrease, ,Hgb decrease, RBC decrease, Heinz body increase + Blood …",40 mg/kg-day
same,NOEL,"[2]; subchronic, duration: 13 weeks, diet, M/F, Fischer 344, Body Weight Changes: decrease + Hematology: Methemoglobin increase, Hct decrease, ,Hgb decrease, RBC decrease, Heinz body increase + Blood …",< 60.5 mg/kg-day
"COC(CC#N)OC [3,3-Dimethoxypropiononitrile]",NOEL,"[2]; short-term, duration: 28 days, gavage, M/F, Clinical Observation: Lethargy Salivation + Body Weight Changes: body weight gain decrease + Urinalysis: Urine volume increase, pH decrease…",< 15 mg/kg-day
O=c1c(O)c(-c2ccc(O)cc2O)oc2cc(O)cc(O)c12 [Morin],NOEL,"[2]; subchronic, diet, F, Fischer 344, Body Weight Changes: decrease + Hematology: WBC increase + Blood Chemistry: BUN increase , TP decrease, TG decrease , Alb increase , Cho …",356 mg/kg-day
same,NOEL,"[2]; subchronic, diet, M/F, Fischer 344, Body Weight Changes: decrease + Hematology: WBC increase + Blood Chemistry: BUN increase , TP decrease, TG decrease , Alb increase , Cho …",0.625%
"Cc1ccc(C)c(N)c1 [2,5-Dimethylaniline]",NOEL,"[2]; short-term, duration: 28 days, gavage, F, Sprague-Dawley, Clinical Observation: Staggering gait Lacrimation Salivation + Body Weight Changes: Body weight gain decrease + Food Consumption: decrease…",12 mg/kg-day
same,NOEL,"[2]; short-term, duration: 28 days, gavage, M, Sprague-Dawley, Clinical Observation: Staggering gait Lacrimation Salivation + Body Weight Changes: Body weight gain decrease + Food Consumption: decrease…",< 12 mg/kg-day
c1ccc(COc2ccc3ccccc3c2)cc1 [Benzyl 2-naphthyl ether],NOEL,"[2]; subchronic, gavage, M, Sprague-Dawley, Blood Chemistry: T-Bil increase + Relative Organ Weight: Liver increase + Histopathology: Kidney-Globular accumulation of eosinophilic …",< 100 mg/kg-day
"CC(=O)C(C)=O [2,3-Butanedione]",NOEL,"[2]; subchronic, duration: 90 days, gavage, M/F, CFE, Body Weight Changes: decrease + Water Consumption: increase + Hematology: HGB decrease, HCT decrease, RET increase, WBC increase, NEUT …",90 mg/kg-day
CC(C)(Sc1cc(C(C)(C)C)c(O)c(C(C)(C)C)c1)Sc1cc(C(C)(C)C)c(O)c(C(C)(C)C)c1 [Probucol],NOAEL,"[2]; chronic, duration: 91 days, gavage, Sprague-Dawley",> 2250 mg/kg-day
c1ccc2c(c1)sc1ccccc12 [Dibenzothiophene],NOEL,"[2]; short-term, duration: 28 days, gavage, M/F, Sprague-Dawley, Clinical Observation: Salivation Soiled perigenital fur + Functional Observational Battery: Locomotor activity decrease + Body Weight …",3 mg/kg-day
C=COCC(CC)CCCC (centres undefined) [1-Ethenoxy-2-ethylhexane],NOEL,"[2]; short-term, duration: 28 days, gavage, M/F, Sprague-Dawley, Urinalysis: Occult blood increase + Blood Chemistry: ALP increase, Cho increase, PL increase + Relative Organ Weight: Liver increase, …",8 mg/kg-day
O=[N+]([O-])c1cc(Cl)c(/N=N/c2ccc3c(c2)c2ccccc2n3CCO)c(Cl)c1,NOEL,"[2]; short-term, duration: 28 days, gavage, M/F, Body Weight Changes: Body weight gain decrease + Food Consumption: decrease + Water Consumption: increase + Urinalysis: Urine volume …",140 mg/kg-day
Cc1ncc[nH]1 [2-Methylimidazole],NOEL,"[2]; subchronic, diet, M/F, Fischer 344, Body Weight Changes: decrease + Food Consumption: decrease + Hematology: Plt increase, Hct decrease, Hgb decrease, RBC decrease, Ret …",< 60 mg/kg-day
CCCCCCc1ccc(O)cc1O [4-Hexylresorcinol],NOEL,"[2]; subchronic, duration: 13 weeks, gavage, M/F, Fischer 344, Deaths + Clinical Observation: Death + Body Weight Changes: decrease + Histopathology: Testis-Hypospermatogenesis Seminal vesicles-…",< 62.5 mg/kg-day
O=c1[nH]c2ccccc2n1CCCN1CCN(C(c2ccccc2)c2ccccc2)CC1 [Oxatomide],NOEL,"[2]; subchronic, duration: 30 days, gavage, M/F, Wistar, Deaths + Clinical Observation: Tremor HypersensitivityPiloerection + Body Weight Changes: Body weight gain decrease + Food Consumption: …",40 mg/kg-day
"CC(C)(C)NN.Cl [Hydrazine, (1,1-dimethylethyl)-, monohydrochloride]",NOEL,"[2]; subchronic, gavage, M, Sprague-Dawley, Hematology: RBC decrease, Hgb decrease, Hct decrease, MCHC decrease, MCV increase, MCH increase, R RET increase, R + Absolute Organ Weight…",4 mg/kg-day
C=CC(=O)OCCCCCCCCCCCC [Lauryl acrylate],NOAEL,[2]; [8],1000 mg/kg-day
same,NOEL,[2]; [8],300 mg/kg-day
c1ccc(P(c2ccccc2)c2ccccc2)cc1 [Triphenylphosphine],NOAEL,[2]; [9],60 mg/kg-day
same,NOEL,[2]; [9],6 mg/kg-day
[Bi] [Bismuth],NOEL,"[2]; short-term, duration: 28 days, gavage, Crj:CD",1000 mg/kg-day
O=[N+]([O-])C(Br)=Cc1ccccc1 [beta-Bromo-beta-nitrostyrene],NOEL,"[2]; subchronic, gavage, M/F, Fischer 344, Deaths + Body Weight Changes: decrease>150 af>>300 + Hematology: RBC increase, WBC increase, Seg increase, Ret increase + Blood Chemistry: …",< 37 mg/kg-day
CC(O)C(=O)[O-].[Na+] (racemic) [Sodium DL-lactate],NOEL,"[2]; subchronic, duration: 42 days, gavage, M, CD(SD), Thyroid Hormone: T4 increase, TSH increase + Histopathology: Stomach-Hyperplasia, squamous, limiting ridge",100 mg/kg-day
C=C(C)C(=O)NCCN1CCNC1=O [2-Methyl-N-[2-(2-oxoimidazolidin-1-yl)ethyl]prop-2-enamide],NOEL,"[2]; short-term, duration: 28 days, gavage, M/F, Deaths + Clinical Observation: Salivation Abnormal breathing + Relative Organ Weight: Kidney increase + Necropsy: Stomach- Raised, limiting…",200 mg/kg-day
"CC(C)(C)c1cc(C(C)(C)C)cc(C(C)(C)C)c1 [1,3,5-Tri-tert-butylbenzene]",LOAEL,[2]; [10],50 mg/kg-day
same,LOEL,[2]; [10],50 mg/kg-day
same,NOAEL,[2]; [10],10 mg/kg-day
same,NOEL,[2]; [10],10 mg/kg-day
"Cc1cc(-c2ccc(N)c(C)c2)ccc1N.Cl.Cl [3,3'-Dimethylbenzidine dihydrochloride]",NOEL,"[2]; subchronic, duration: 13 weeks, drinking water, M/F, Fischer 344, Deaths + Clinical Observation: Crusty red exudate on the noses Thinness Stains on the fur + Body Weight Changes: decrease + Water …",< 45.6 mg/kg-day
CC1CC(CC2CCC(N)C(C)C2)CCC1N (centres undefined) [Bis(4-amino-3-methylcyclohexyl)methane],NOAEL,"[2]; subchronic, duration: 90 days, gavage, M/F, Wistar, Deaths: None (There were dead animals due to the intubation error) + Clinical Observation: Deteriorated general state Discolored body region…",2.5 mg/kg-day
O=c1ccc2ccccc2o1 [Coumarin],NOEL,"[2]; subchronic, duration: 13 weeks, gavage, M/F, Fischer 344, Deaths + Body Weight Changes: decrease + Hematology: RBC increase + Blood Chemistry: Ch E decrease, Cl decrease, TP increase, Alb increase, …",< 19 mg/kg-day

# From EPA's ToxValDB 9.5
